Measured values published in ChEMBL document CHEMBL1201862, “PubChem BioAssay data set” (2004).
Each block holds one compound with its values, some of them ahead of it. Active and inactive are the calls of the source. Unless noted, the calls are words filed in the database; no cut-off is given here.

Key:
[1] = target: T1, Delta-type opioid receptor (Homo sapiens, UniProt P41143); test: SAR Analysis of Agonists of the DOR Receptor using an Image-Based Assay - Set 2. [Related pubchem assays (depositor defined):AID1777, AID1785, AID1786, AID1966, AID2133, AID2136, AID2284, AID2285, AID2370]; type: functional
[2] = target: T2, Mu-type opioid receptor (Homo sapiens, UniProt P35372); test: SAR Analysis of Antagonists of the MOR Receptor using an Image-Based Assay - Set 2. [Related pubchem assays (depositor defined):AID1777, AID1785, AID1786, AID1966, AID2133, AID2136, AID2284, AID2285, AID2420]; type: functional
[3] = target: T3, Kappa-type opioid receptor (Homo sapiens, UniProt P41145); test: SAR analysis of Antagonists of the Kappa Opioid Receptor (KOR) using an Image-Based Assay - Set 2. [Related pubchem assays (depositor defined):AID1777, AID1785, AID1786, AID1966, AID2133, AID2136, AID2284, AID2285, AID2348]; type: functional
[4] = target: T3, Kappa-type opioid receptor; test: SAR analysis of small molecule agonists of the kappa opioid receptor via a luminescent beta-arrestin assay - Set 2. [Related pubchem assays (depositor defined):AID1777, AID1785, AID1786, AID1966, AID2133, AID2136, AID2284, AID449737]; type: functional
[5] = target: T2, Mu-type opioid receptor; test: SAR Analysis of Agonists of the MOR Receptor using an Image-Based Assay - Set 2. [Related pubchem assays (depositor defined):AID1777, AID1785, AID1786, AID1966, AID2133, AID2136, AID2284, AID2285, AID2352]; type: functional
[6] = target: T1, Delta-type opioid receptor; test: SAR Analysis of Antagonists of the DOR Receptor using an Image-Based Assay - Set 2. [Related pubchem assays (depositor defined):AID1777, AID1785, AID1786, AID1966, AID2133, AID2136, AID2284, AID2285, AID2357]; type: functional
[7] = target: T3, Kappa-type opioid receptor; test: SAR analysis of Agonists of the Kappa Opioid Receptor (KOR) using an Image-Based Assay - Set 2. [Related pubchem assays (depositor defined):AID1777, AID1786, AID1966, AID2133, AID2136, AID2284, AID2285, AID2359]; type: functional
[8] = target: Voltage-dependent T-type calcium channel subunit alpha-1H (Homo sapiens, UniProt O95180); test: Cav3.2 T-type channel blockers, cell-based, SynthLib3 library, HEK293 Cav3.2, fluorescence (AID 493041); type: functional
[9] = target: Intestinal-type alkaline phosphatase (Homo sapiens, UniProt P09923); test: activation of human intestinal alkaline phosphatase – biochemical, dose response (AID 488873); type: functional
[10] = target: T4, Rac GTPase-activating protein 1 (Homo sapiens, UniProt Q9H0H5); test: MgcRacGAP GTPase-activating activity inhibitors, confirmation, biochemical, ADP Hunter fluorescence, primary and confirmatory (AID 624330); type: functional
T4 sequence (Q9H0H5 whole entry): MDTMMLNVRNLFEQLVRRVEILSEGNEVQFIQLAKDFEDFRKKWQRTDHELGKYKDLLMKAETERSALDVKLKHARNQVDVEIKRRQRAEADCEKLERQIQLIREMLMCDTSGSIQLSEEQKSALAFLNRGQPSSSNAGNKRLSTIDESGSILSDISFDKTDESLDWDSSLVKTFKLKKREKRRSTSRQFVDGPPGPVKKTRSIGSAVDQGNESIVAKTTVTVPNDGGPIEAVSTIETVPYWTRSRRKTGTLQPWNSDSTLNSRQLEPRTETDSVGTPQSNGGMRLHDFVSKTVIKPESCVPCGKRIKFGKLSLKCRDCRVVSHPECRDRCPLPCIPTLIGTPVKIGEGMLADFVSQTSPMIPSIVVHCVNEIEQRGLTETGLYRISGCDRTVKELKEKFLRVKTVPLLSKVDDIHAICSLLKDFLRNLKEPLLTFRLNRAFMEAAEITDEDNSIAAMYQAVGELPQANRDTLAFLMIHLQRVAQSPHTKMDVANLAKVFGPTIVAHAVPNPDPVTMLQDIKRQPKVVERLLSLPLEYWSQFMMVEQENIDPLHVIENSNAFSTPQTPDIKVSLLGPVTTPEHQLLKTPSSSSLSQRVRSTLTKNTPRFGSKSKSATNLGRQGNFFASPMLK

[11] = target: Intestinal-type alkaline phosphatase (Mus musculus, UniProt P24822); test: mouse intestinal alkaline phosphatase activators, dose response, biochemical, luminescence, uHTS hits (AID 488783); type: functional
[12] = target: T5, RNA-binding protein pos-1 (Caenorhabditis elegans, UniProt G5EF15); test: inhibitors of POS-1/mex-3 RNA binding, dose response, biochemical, fluorescence polarization (AID 1964);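 further: purified POS-1 fused to maltose binding protein made in E. coli; potency of compounds blocking POS-1 binding to fluorescent RNA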
T5 sequence (G5EF15 whole entry): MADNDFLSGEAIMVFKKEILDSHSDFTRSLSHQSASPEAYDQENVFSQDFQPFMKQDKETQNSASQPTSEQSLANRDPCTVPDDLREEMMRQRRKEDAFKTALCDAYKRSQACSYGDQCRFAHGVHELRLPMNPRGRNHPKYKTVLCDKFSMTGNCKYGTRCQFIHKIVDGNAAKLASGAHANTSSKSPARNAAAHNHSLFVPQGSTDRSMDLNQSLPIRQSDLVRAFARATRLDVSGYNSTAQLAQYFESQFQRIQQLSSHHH

[13] = target: T6, Alkaline phosphatase, tissue-nonspecific isozyme (Homo sapiens, UniProt P05186); test: TNAP enzyme activators, dose response, selectivity assay for mouse IAP activator project, biochemical, TNAP isozyme, mouse IAP uHTS hits (AID 488880); type: functional
T6 sequence (P05186 whole entry): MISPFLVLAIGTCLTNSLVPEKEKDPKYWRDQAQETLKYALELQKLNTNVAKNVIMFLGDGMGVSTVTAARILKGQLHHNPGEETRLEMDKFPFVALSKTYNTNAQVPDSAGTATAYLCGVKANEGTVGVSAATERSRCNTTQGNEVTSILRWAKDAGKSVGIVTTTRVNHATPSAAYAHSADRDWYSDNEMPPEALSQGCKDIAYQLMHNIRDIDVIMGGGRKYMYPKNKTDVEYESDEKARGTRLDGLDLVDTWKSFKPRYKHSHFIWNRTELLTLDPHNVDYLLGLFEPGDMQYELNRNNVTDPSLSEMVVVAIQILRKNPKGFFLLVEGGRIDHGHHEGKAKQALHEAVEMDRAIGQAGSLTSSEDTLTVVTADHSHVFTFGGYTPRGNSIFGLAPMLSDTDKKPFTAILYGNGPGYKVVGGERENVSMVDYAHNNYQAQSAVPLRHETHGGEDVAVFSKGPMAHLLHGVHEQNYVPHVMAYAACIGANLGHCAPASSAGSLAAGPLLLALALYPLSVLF

[14] = target: T7, Zinc finger protein mex-5 (Caenorhabditis elegans, UniProt Q9XUB2); test: MEX-5/TCR-2 RNA interaction inhibitors, dose response, biochemical, C. elegans, fluorescence polarization (AID 1960)
T7 sequence (Q9XUB2 whole entry): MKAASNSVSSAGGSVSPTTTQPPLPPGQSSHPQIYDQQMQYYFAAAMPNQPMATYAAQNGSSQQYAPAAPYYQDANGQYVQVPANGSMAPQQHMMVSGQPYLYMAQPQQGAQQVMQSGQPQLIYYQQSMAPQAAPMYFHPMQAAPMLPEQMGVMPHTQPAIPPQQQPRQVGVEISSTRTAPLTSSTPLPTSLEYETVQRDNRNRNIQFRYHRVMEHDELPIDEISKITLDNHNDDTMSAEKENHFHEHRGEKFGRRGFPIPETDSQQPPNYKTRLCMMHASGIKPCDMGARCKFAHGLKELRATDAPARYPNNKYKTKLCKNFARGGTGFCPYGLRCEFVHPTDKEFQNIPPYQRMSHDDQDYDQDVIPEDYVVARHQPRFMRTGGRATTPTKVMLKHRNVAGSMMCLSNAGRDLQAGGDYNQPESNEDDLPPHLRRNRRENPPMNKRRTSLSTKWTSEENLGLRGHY

[15] = target: T8, Heat shock factor protein 1 (Mus musculus, UniProt P38532); test: HSF1 potentiators in luciferase reporter cells, confirmation, cell-based, NIH3T3, luminescence, dose retest (AID 435004); type: functional;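 further: stress induced by proteasome inhibitor MG132 added 30 min after compound; luciferase reporter driven by HSF1 response element in NIH3T3 cells; actives raise luminescence as potentiators of the MG132 stress response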
T8 sequence (P38532 whole entry): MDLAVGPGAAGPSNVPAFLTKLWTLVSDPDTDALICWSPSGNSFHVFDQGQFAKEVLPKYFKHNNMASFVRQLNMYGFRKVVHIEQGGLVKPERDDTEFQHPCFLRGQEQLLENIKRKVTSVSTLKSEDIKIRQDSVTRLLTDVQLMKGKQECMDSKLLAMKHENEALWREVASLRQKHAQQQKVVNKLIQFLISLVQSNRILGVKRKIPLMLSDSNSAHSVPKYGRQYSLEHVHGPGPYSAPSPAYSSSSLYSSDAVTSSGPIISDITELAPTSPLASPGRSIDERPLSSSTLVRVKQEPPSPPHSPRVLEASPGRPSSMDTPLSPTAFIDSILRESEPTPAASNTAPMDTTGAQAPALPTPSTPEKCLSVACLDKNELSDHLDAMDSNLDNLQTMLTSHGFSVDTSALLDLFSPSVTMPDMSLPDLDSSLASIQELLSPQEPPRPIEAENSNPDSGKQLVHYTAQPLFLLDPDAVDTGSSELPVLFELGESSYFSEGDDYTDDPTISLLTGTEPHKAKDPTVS

T3 sequence (P41145 whole entry): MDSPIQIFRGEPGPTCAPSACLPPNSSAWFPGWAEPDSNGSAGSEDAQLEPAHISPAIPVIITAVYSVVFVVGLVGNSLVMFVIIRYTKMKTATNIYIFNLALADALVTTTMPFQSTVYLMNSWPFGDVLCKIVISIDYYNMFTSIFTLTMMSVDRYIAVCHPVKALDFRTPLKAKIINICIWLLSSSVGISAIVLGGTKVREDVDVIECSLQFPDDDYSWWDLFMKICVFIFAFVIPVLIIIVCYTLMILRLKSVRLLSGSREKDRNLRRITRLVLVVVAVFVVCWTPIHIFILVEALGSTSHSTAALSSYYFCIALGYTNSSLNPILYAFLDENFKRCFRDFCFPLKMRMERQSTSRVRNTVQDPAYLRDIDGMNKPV
T2 sequence (P35372 whole entry): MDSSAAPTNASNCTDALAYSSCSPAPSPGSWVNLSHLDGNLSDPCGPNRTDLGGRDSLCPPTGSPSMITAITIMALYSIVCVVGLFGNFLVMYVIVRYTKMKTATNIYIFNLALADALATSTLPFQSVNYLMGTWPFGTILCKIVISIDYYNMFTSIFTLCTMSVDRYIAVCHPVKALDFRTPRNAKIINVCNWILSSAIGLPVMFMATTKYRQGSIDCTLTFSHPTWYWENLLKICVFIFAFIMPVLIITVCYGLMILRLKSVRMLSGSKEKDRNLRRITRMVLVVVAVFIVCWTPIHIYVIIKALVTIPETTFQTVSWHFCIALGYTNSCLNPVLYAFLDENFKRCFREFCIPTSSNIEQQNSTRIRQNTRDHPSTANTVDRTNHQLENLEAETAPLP
T1 sequence (P41143 whole entry): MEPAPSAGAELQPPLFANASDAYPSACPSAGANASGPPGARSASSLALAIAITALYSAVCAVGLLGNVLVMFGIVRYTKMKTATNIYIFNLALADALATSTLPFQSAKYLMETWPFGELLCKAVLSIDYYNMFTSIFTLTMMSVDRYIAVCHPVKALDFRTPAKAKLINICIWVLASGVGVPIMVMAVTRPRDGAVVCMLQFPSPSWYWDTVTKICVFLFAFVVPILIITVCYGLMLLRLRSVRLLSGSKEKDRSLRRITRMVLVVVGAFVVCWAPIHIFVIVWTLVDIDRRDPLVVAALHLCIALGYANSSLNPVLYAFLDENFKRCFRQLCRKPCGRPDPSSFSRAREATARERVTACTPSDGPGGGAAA
Intestinal-type alkaline phosphatase (Homo sapiens, UniProt P09923), sequence (P09923 whole entry): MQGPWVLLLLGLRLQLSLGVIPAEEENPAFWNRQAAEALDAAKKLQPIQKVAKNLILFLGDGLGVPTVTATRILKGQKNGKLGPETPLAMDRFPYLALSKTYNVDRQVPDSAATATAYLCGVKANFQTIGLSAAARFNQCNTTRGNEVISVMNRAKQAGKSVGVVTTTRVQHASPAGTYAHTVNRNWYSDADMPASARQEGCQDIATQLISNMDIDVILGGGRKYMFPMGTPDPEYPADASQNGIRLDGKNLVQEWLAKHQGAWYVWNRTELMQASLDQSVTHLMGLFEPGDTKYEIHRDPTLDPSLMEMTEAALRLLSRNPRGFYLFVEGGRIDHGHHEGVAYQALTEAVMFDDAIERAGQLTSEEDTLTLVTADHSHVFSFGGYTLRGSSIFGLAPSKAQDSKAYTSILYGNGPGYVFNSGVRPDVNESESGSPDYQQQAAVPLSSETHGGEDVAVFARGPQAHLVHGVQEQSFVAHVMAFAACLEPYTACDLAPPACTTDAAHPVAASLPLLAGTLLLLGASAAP
Intestinal-type alkaline phosphatase (Mus musculus, UniProt P24822), sequence (P24822 whole entry, the tested form may be a part): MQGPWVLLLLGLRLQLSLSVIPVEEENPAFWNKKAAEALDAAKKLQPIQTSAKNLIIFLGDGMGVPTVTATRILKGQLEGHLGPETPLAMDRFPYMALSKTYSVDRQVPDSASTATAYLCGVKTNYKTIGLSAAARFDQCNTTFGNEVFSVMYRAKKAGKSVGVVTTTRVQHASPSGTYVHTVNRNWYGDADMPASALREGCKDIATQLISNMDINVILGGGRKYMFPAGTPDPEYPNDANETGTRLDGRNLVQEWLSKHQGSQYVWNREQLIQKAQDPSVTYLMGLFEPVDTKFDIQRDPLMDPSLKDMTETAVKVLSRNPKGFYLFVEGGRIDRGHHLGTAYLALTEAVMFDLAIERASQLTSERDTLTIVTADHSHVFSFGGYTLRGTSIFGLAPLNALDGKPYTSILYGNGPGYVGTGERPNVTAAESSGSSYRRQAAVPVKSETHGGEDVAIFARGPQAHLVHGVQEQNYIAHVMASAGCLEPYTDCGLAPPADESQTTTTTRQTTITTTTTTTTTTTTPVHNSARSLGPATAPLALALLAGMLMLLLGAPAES
Voltage-dependent T-type calcium channel subunit alpha-1H, sequence (O95180 whole entry): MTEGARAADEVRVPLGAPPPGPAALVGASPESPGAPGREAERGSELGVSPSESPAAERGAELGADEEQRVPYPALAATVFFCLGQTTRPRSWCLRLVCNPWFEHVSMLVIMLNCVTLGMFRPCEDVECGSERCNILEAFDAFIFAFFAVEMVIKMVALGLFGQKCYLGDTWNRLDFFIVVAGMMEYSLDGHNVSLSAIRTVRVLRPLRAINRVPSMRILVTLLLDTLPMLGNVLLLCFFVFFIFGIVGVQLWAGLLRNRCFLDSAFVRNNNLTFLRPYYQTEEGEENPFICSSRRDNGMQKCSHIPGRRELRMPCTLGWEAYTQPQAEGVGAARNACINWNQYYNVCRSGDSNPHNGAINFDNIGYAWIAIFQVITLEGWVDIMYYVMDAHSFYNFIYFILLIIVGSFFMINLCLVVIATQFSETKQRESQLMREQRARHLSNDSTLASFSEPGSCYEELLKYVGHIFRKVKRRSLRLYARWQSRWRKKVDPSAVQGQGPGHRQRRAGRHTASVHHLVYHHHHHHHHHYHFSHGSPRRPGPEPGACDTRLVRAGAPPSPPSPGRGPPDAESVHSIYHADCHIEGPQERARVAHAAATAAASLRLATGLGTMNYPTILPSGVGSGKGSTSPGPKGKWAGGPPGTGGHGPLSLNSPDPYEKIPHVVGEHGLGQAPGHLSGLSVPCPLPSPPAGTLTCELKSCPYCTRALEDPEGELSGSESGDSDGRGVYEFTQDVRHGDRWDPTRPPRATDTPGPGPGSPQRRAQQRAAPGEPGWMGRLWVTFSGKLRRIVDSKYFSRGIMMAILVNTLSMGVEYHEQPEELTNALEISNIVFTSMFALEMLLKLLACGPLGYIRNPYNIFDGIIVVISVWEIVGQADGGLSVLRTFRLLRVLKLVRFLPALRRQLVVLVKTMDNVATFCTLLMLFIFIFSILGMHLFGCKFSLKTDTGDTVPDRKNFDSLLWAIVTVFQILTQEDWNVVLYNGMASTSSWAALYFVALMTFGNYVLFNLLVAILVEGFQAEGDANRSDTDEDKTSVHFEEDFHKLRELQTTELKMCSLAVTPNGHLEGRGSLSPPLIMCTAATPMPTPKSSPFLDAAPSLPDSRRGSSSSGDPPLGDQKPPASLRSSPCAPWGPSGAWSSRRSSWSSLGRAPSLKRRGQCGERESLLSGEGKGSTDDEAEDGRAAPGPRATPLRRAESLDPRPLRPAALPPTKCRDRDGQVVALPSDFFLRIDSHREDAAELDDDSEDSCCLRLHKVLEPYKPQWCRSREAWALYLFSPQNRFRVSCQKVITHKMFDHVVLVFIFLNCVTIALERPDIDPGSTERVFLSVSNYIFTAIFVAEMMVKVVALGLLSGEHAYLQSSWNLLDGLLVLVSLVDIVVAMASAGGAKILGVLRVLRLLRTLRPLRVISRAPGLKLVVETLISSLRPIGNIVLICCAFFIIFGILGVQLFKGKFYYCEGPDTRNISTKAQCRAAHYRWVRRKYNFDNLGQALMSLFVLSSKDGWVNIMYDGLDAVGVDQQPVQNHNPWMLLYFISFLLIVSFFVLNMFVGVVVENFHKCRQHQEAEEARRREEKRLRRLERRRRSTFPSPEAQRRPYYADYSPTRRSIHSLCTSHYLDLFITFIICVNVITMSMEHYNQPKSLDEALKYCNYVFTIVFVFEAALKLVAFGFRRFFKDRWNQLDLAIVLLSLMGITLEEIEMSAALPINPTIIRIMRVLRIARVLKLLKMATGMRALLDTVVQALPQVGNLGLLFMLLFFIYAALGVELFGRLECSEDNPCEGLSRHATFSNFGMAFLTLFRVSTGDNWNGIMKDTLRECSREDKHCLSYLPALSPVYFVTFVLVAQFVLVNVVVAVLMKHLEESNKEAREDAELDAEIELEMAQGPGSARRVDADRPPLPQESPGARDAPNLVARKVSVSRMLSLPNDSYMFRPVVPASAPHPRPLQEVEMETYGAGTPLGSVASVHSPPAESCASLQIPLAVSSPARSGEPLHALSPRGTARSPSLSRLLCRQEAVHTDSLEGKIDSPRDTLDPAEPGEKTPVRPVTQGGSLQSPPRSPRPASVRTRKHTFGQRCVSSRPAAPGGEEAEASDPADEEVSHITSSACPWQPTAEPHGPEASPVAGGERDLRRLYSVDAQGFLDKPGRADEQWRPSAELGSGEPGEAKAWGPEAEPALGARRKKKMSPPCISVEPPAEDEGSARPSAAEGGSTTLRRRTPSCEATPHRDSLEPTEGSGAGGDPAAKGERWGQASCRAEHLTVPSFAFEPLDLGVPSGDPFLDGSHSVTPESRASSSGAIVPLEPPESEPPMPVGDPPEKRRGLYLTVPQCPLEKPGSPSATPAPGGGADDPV

EC50 [1]: > 32 µM (inactive)
IC50 [2]: > 32 µM (inactive)
IC50 [3]: > 32 µM (inactive)
EC50 [4]: 1.85 µM (active)
EC50 [5]: > 32 µM (inactive)
IC50 [6]: > 32 µM (inactive)
EC50 [7]: 1.1 µM (active)
Structure (SMILES): Brc1ccc(CSc2nnc(-c3ccccn3)n2Cc2cccs2)cc1

EC50 [8]: 1.9 µM (active)
Structure (SMILES): CC(C)CCN1C[C@@H]2C(CNC(=O)c3cc(Cl)cc(Cl)c3)[C@@H]2C1 (stereo not given in full)

EC50 [9]: 66.2 µM (active)
IC50 [10]: 21.4 µM (active)
EC50 [11]: 58.7 µM (active)
EC50 [12]: 99.3 µM (active)
EC50 [13]: 56.1 µM (active)
EC50 [14]: 125 µM (active)
EC50 [15]: > 260 µM (inactive)
Structure (SMILES): Cc1cc(O)nc(N/N=C/c2ccc(O)c(O)c2)n1
